In general, MIC refers to the smallest concentration in the dilution series that meets the test's criterion for growth inhibition.

Common to all, as to test: MBIC/MIC secondary assay
Holding throughout (assay type): cell-based, Staphylococcus epidermidis
Common to all, as to details: for MIC: Staphylococcus epidermidis

Experiment [1] concerns S. epidermidis strain 35894. Here is the method:
(§1) Assays for detecting and measuring bacterial biofilm formation are known in the art. An example of a biofilm formation assay useful in detecting and characterizing biofilm inhibitor compounds is described in Example 1, infra. Briefly, bacterial cells are inoculated into growth medium in individual wells of a 96-well assay plate in the presence or absence of a compound (known biofilm inhibitor or test compound). After incubation for a specified time, growth medium and non-biofilm bacterial cells are removed from each of the wells. The bacterial cells in any biofilms that are adhered to the surface of a well are fixed by addition of ethanol. The ethanol is removed, and the fixed biofilm bacteria cells are stained with crystal violet (CV). The intensity of CV staining is directly correlated with bacterial biofilm formation and is measured in the wells by reading the optical density at 600 nm (OD600). The difference in biofilm formation between untreated control and treated cultures provides an indication of relative biofilm inhibition activity (anti-biofilm activity). Use of different concentrations of an inhibitor in multiple and otherwise duplicate cultures permits determination of a compound's Minimal Biofilm Inhibitory Concentration (MBIC), which is defined herein as the lowest concentration of a compound that inhibits biofilm formation by at least 80% (i.e., ≧80%) compared to untreated control cultures.
(§2) A higher throughput was achieved by formatting the assay for use in flat-bottomed 96-well assay plates (Costar 3590 assay plates, Corning Life Sciences, Lowell, Mass.). The biofilm cultures grew on the bottoms of each well in a surface attached mode. In each assay plate, columns 1 and 12 contained untreated cultures, which served as negative controls (0% biofilm inhibition). Each of the assay wells in columns 2-11 contained a unique small molecule from the Microbiotix Screening Library (MSL) at a final concentration of 100 μM. Assay plates were inoculated with 200 μl/well of a culture of Staphylococcus pidermidis 18972 in 0.5×Tryptic Soy Broth (TSB; Becton Dickinson, Franklin Lakes, N.J.) in which the concentration of glucose was adjusted to 0.25% (w/v). The bacterial inocula were prepared by making a 1:100 dilution of an overnight culture grown in TSB in the media used for the screen. After inoculation, assay plates were sealed with foil tape and incubated at 37° C. for 18-20 hours (h). The optical density at 600 nm (OD600) was measured for each well using a VICTOR2V™ multiplate reader (Perkin Elmer, Waltham, Mass.) in order to quantify overall bacterial growth. The assay plates were processed to remove bacterial growth media and non-biofilm cells from the bottom of each assay well. This was accomplished by using a BioTek ELx405™ plate washer (BioTek Instruments, Inc., Winooski, Vt.). Biofilm bacteria were fixed by addition of 50 μl of 95% ethanol for 30 minutes (min). The ethanol was removed, and the fixed biofilm cultures were stained with 50 μl of 0.06% crystal violet (CV) for 60 min. Excess CV was removed by repeated washes using the BioTek ELx405™ plate washer. The amount of CV bound to each assay well was quantified by measuring OD600 using a VICTOR2V™ plate reader (Perkin Elmer).
(§3) A secondary assay provided a quantitative measure of both anti-biofilm activity and antibacterial activity in terms of the Minimal Biofilm Inhibitory Concentration (MBIC) and the Minimal Inhibitory Concentration (MIC), respectively. The MBIC and MIC are defined as the lowest compound concentrations that inhibit biofilm formation and bacterial growth, respectively, by at least 80% (i.e., ≧80%). The MBIC/MIC assay is formatted in a manner that is similar to the Microbroth dilution assays described by the Clinical and Laboratory Standards Institute (CLSI; formerly NCCLS) in protocol M7-A7. The growth conditions were optimized for biofilm growth in 96-well assay plates such that the resulting CV staining was within the linear range of detection. […]

Experiment [2] deals with S. epidermidis strain 1457. How it is done: as §1, §2, §3
The test system of experiment [3] is S. epidermidis strain O47. Here is the method: as §1, §2, §3

Read-outs that look alike come from different tables or passages of the source.

As to `CCOc1cc(/C=C2\SC(=S)N(c3ccc(F)cc3)C2=O)ccc1O` [Compound 4, 3-(4-fluorophenyl)-5-(3-ethoxy-4-hydroxybenzylidene)-2-thioxothiazolidin-4-one], the MBIC is 25 µM in experiment [1] (S. epidermidis strain 35894), 50 µM in experiment [2] (S. epidermidis strain 1457) and 12.5 µM in experiment [3] (S. epidermidis strain O47). Further, the MIC in experiment [1] (35894), in experiment [2] (1457) and in experiment [3] (O47) was not below 100 µM each time.

For the compound `CCOc1cc(/C=C2\SC(=S)N(c3cccc(F)c3)C2=O)ccc1O` [Compound 8, 3-(3-fluorophenyl)-5-(3-ethoxy-4-hydroxybenzylidene)-2-thioxothiazolidin-4-one], the MBIC in experiment [1] (S. epidermidis strain 35894) was 25 µM; in experiment [2] (S. epidermidis strain 1457) it was 50 µM; in experiment [3] (S. epidermidis strain O47), 25 µM. For the same compound, the minimal inhibitory concentration (MIC) in experiment [1] (35894), in experiment [2] (1457) and in experiment [3] (O47) was not below 100 µM in each case.

Take `C=CCOc1cc(/C=C2\SC(=S)N(c3ccc(F)cc3)C2=O)ccc1O` [Compound 29, 3-(4-fluorophenyl)-5-(3-allyloxy-4-hydroxybenzylidene)-2-thioxothiazolidin-4-one]: the MBIC was 25 µM in experiment [1] (S. epidermidis strain 35894), 25 µM in experiment [2] (S. epidermidis strain 1457) and 12.5 µM in experiment [3] (S. epidermidis strain O47). Also, the minimal inhibitory concentration (MIC) in experiment [1] (S. epidermidis strain 35894, read-out: MIC) is not below 100 µM; in experiment [2] (S. epidermidis strain 1457, read-out: MIC) it was not below 100 µM; in experiment [3] (S. epidermidis strain O47, read-out: MIC), not below 100 µM.

Consider `CCOc1cc(/C=C2\SC(=S)N(c3cccc(C#N)c3)C2=O)ccc1O` [Compound 34, 3-(3-cyanophenyl)-5-(3-ethoxy-4-hydroxybenzylidene)-2-thioxothiazolidin-4-one], for which the MBIC in experiment [1] (S. epidermidis strain 35894) is 12.5 µM; in experiment [2] (S. epidermidis strain 1457) it was “≧100 μM”; in experiment [3] (S. epidermidis strain O47) it was 1.6 µM. Moreover, the MIC in experiment [1] (35894), in experiment [2] (1457) and in experiment [3] (O47) was not below 100 µM in each case.

As to `CCOc1cc(/C=C2\SC(=S)N(c3cccnc3)C2=O)ccc1O` [Compound 36, 3-(pyridin-3-yl)-5-(3-ethoxy-4-hydroxybenzylidene)-2-thioxothiazolidin-4-one], the MBIC in experiment [1] (S. epidermidis strain 35894) was 12.5 µM; in experiment [2] (S. epidermidis strain 1457) it was 12.5 µM; in experiment [3] (S. epidermidis strain O47) it was 50 µM. Moreover, the MIC in experiment [1] (35894), in experiment [2] (1457) and in experiment [3] (O47) was not below 100 µM each time.

In the case of `CCOc1cc(/C=C2\SC(=S)N(c3ccc(F)nc3)C2=O)ccc1O` [Compound 40, 3-(6-fluoropyridin-3-yl)-5-(3-ethoxy-4-hydroxybenzylidene)-2-thioxothiazolidin-4-one], the MBIC was 6.3 µM in experiment [1] (S. epidermidis strain 35894), 25 µM in experiment [2] (S. epidermidis strain 1457) and 6.3 µM in experiment [3] (S. epidermidis strain O47). Besides, the MIC in experiment [1] (35894), in experiment [2] (1457) and in experiment [3] (O47) was not below 100 µM in each case.

Source of the values: US20110098323A1, “INHIBITORS OF BACTERIAL BIOFILM FORMATION” (MICROBIOTIX, INC., priority 2009, published 2011).
